The values below come from US20260345729A1, “TISSUE DIFFERENTIATION FACTOR RELATED POLYPEPTIDES (TDFRPS) FOR THE TREATMENT OF MYOCARDIAL INJURY” (Therapeutics By Design, LLC, priority 2022, published 2026).

Data set [1] has as its system Akt phosphorylation at Serine 473, neonatal rat cardiomyocytes. Description: Akt phosphorylation (Ser473) in cardiomyocytes starved by serum withdrawal (ischemic injury). Type of data set: cell-based. The conditions noted are these: serum/growth supplement withdrawal; THR-123 100 μM, 60 h; p<0.01; FIG. 1. The text has this:
Phosphorylated Akt is a marker of apoptosis. Ischemic injury leads to apoptosis.
(§1) The examples described herein valuated the effect of TDFRP's on the physiology of cardiomyocytes in vitro. Phosphorylation of cellular AKT at Ser473 is known to promote cardiomyocyte survival, function, and contractility. Cellular enzyme Caspase-3 is responsible for apoptosis via both apoptosis pathways. Chemotherapeutic agent doxorubicin […] used to treat a diverse number of cancers, but one significant side effect is decreased heart function. In cardiomyocytes, doxorubicin hinders the phosphorylation of AKT and stimulates Caspase-3. Lipopolysaccharides (LPS) are endotoxins that promote inflammation and apoptosis in cardiomyocytes.
Primary neonatal rat cardiomyocytes (Cell Applications) were cultured in medium with 10% growth supplement (Cell Applications) for 24 hours at 37 °C, 5% CO2. Cells were then starved of growth supplement for 12 hours to create ischemic injury. Controls received medium alone. Cells were incubated with culture medium alone, BMP-7 (143 nM) or SEQ ID No. 1 (100 μM) for 60 h. In FIG. 1, Akt phosphorylation at Serine 473 (Cell Signaling Technology) is depressed due to media starvation and was not affected by the addition of PBS.

For data set [2], the system named is phosphorylation of AKT, cardiomyocytes. Description: Phosphorylated AKT in doxorubicin-treated cardiomyocytes. It is filed as cell-based, rat. The conditions noted are these: FIG. 2.
Excerpt: as §1
(§2) Neonatal rat cardiomyocytes (CM) were pre-treated with 0.33 μM doxorubicin for 24 h, followed by treatment with BMP-7 (143 nM) or THR-123 (SEQ ID NO: 1) at 100 and 500 μM for 60 h.

The subject of data set [3] is Caspase-3, cardiomyocytes. Description: Doxorubicin-induced Caspase-3 activity in cardiomyocytes. Type of data set: cell-based, rat. The settings on record: for doxorubicin induced Caspase-3 activity: doxorubicin 0.33 μM 24 h (FIG. 3 legend: 333 μM), then BMP-7 143 nM or THR-123 100 and 500 μM for 60 h, p<0.05; for caspase-3 activity (effect of doxorubicin itself): 333 μM (legend) / 0.33 μM (example) doxorubicin, cardiomyocytes, FIG. 3. As to the method: as §2
Neonatal rat cardiomyocytes (CM) were pre-treated with 0.33 μM doxorubicin for 24 h, followed by treatment with BMP-7 (143 nM) or SEQ ID No. 1 at 100 and 500 μM for 60 h. […] Caspase-3 activation is a step common to both apoptotic pathways and leads to apoptosis.

In data set [4] the test system is Caspase-3, cardiomyocytes. Description: LPS-induced Caspase-3 in cardiomyocytes. Type of data set: cell-based, human. The settings on record: 100 ng/ml LPS; BMP-7 143 nM; THR-123 4, 20, 100, 500 μM (legend: 20 μM or higher); FIG. 4.
A further data set concerns IL-6, cardiomyocytes. Description: LPS-induced IL-6 release in cardiomyocytes. It is filed as cell-based, human. The conditions noted are these: 100 ng/ml LPS; BMP-7 143 nM; THR-123 4, 20, 100, 500 μM; FIG. 5.
Data set [5] has as its system myocardial ischemia in the rat after ligation of the left anterior descending artery. Description: Rat LAD ligation model: histomorphometric necrotic volume / volume at risk (ischemia/reperfusion injury). Type of data set: in vivo. The conditions noted are these: i.v. 2 hr prior and 24, 72, 120 hr post ligation, 20 min ischemia, 7 days reperfusion, BMP-7 160 μg/kg (p=0.08), THR-123 10 mg/kg (p=0.007), FIG. 8. As to the method: For each slice of a heart, the area of the necrotic area and the area of the whole area at risk (not stained blue) are measured. The areas are summed over all slices to obtain an estimate of the necrotic volume (NV) and the volume at risk (VR). The ratio of NV/VR is a measure of the myocardial injury resulting from the period of ischemia and subsequent reperfusion injury.
The efficacy of BMP mimetic THR-123 in ameliorating the effects of myocardial ischemia was investigated in the rat after ligation of the coronary artery. The rat LAD model is used for studying the effect of treatments for ameliorating the effect of a heart attack (coronary infarct). The Left Anterior Descending artery (LAD) supplies blood to the left ventricle. Blocking blood flow through the LAD creates ischemia in a region of the left ventricle muscle (region at risk). […]
Twenty-four unmanipulated rats, sorted into three large groups by initial body weight (>300 g pre-surgery) were evaluated. […]
The effect of the LAD ligation was measured via histomorphometric analysis of heart slices where the necrotic areas (yellow) and the areas impacted by the LAD ligation (area at risk, i.e., not stained blue) were measured for each slice and summed over all slices to obtain a measure of the infarct volume and the volume at risk (FIG. 7). […]

For data set [6], the system named is paracardial inflammation in rat hearts after LAD ligation. Description: Paracardial inflammation / pericarditis inflammation level in rat LAD ligation model. Type of data set: in vivo. The conditions noted are these: i.v.; BMP-7 160 μg/kg; THR-123 10 mg/kg; day 7 post ligation; FIG. 9. As to the method:
Myocardial ischemia was created by ligating the left anterior descending artery (LAD), which supplies blood to the left ventricle of the heart. In the LAD infarct model the chest and the pericardium are opened to expose the LAD. A suture is placed around the LAD and loops are added to the two ends, then the suture is tightened with an over hand knot (ligation). The ligation blockage to the LAD was maintained for 20 min to simulate a coronary infarct, then released using the two loops.
The animals were divided into three groups that were dosed with PBS, BMP-7, or THR-123 (SEQ ID NO: 1). Administrations were at 2 hr prior to ligation and at 24, 72 and 120 hr post ligation.
Twenty-four unmanipulated rats, sorted into three large groups by initial body weight (>300 g pre-surgery) were evaluated. Animals underwent surgery and were sorted into 3 treatment groups: Group 1: Vehicle (neg. control), PBS, equal volume i.v; Group 2: BMP-7, 160 μg/kg i.v.<5 ml/kg; Group 3: THR-123 (SEQ ID NO: 1), 10 mg/kg i.v.<5 ml/kg. The LAD was ligated to create a 20 min period of ischemia, then released for seven days during which reperfusion injury occurs (IR injury).
The predominance of the hearts from the PBS treated group had more severe inflammation than hearts from the BMP-7 treated and the THR-123 (SEQ ID NO: 1) treated groups (FIG. 9).

Values joined by “and” are separate entries in the source; they are usually repeats but may differ in a detail not shown here. Equal entries are not always repeated. “Also recorded” adds a separate entry of the source.

On to “THR-123: TDFRP peptide, BMP mimetic: (H) CYFDDSSNVLCKKYRS (OH)”, for which the “Akt Ser473 phosphorylation” value in data set [1] is on record as “significantly increased Akt Ser473 phosphorylation; also recorded: reversed the effects of ischemia on AKT phosphorylation”. Further, in data set [2] (0.33 μM (333 nM) doxorubicin 24 h, then THR-123 at 100 and 500 μM for 60 h, p<0.01), the “Akt phosphorylation compared to doxorubicin alone” value was “significantly increased cellular Akt phosphorylation; also recorded: reversed the inhibition of AKT phosphorylation in a dose dependent manner”. Also, in data set [3], the “doxorubicin induced Caspase-3 activity” value is “inhibited doxorubicin induced Caspase-3 activity in a dose dependent manner; also recorded: significantly inhibited doxorubicin induced Caspase-3 activity; also recorded: completely reversed the apoptotic effects of doxorubicin”. Further, the “LPS induced Caspase-3” value in data set [4] was “reduced the level of LPS induced Caspase-3 in a concentration dependent manner; also recorded: reversed caspase-3 activity to an even greater extent”. Moreover, the “LPS induced IL-6” value in the data set with IL-6, cardiomyocytes is listed as “reduces the level of LPS induced IL-6 in a concentration dependent manner; also recorded: reduced the level of IL-6 release as did THR-123 in a dose dependent manner”. Moreover, in data set [5] (10 mg/kg), the “reduction in myocardial injury / IR damage relative to PBS (necrotic volume / volume at risk)” value was 85% and 84%. For the same molecule, the “paracardial inflammation relative to PBS” value in data set [6] is reported as “reduced paracardial inflammation relative to PBS”.
Regarding `COc1cccc2c1C(=O)c1c(O)c3c(c(O)c1C2=O)C[C@@](O)(C(=O)CO)C[C@@H]3O[C@H]1C[C@H](N)[C@H](O)[C@H](C)O1` [doxorubicin, reference compound], the “phosphorylation of AKT (effect of doxorubicin itself)” value in data set [2] (333 nM doxorubicin, serum starved cardiomyocytes) is on record as “further reduces phosphorylation of AKT”. In addition, the “caspase-3 activity (effect of doxorubicin itself)” value in data set [3] was “stimulated caspase-3 activity”; in data set [3] (listed as Doxorubicin), “Stimulated Caspase-3”.

B1: BMP-7: bone morphogenetic proteins (BMPs) (protein, UniProt P18075 293-431, looked up)
Bone morphogenetic protein 7: STGSKQRSQNRSKTPKNQEALRMANVAENSSSDQRQACKKHELYVSFRDLGWQDWIIAPEGYAAYYCEGECAFPLNSYMNATNHAIVQTLVHFINPETVPKPCCAPTQLNAISVLYFDDSSNVILKKYRNMVVRACGCH
For B1, in data set [3], the “doxorubicin induced Caspase-3 activity” value was “significantly inhibited doxorubicin induced Caspase-3 activity; also recorded: completely reversed the apoptotic effects of doxorubicin”. The “LPS induced Caspase-3” value in data set [4] was “reduced the level of LPS induced Caspase-3 in a concentration dependent manner; also recorded: somewhat reversed the effect of LPS”. Moreover, the “LPS induced IL-6” value in the data set with IL-6, cardiomyocytes is “reduces the level of LPS induced IL-6 in a concentration dependent manner; also recorded: reduced the level of IL-6 release”. Besides, in data set [5], the “reduction in myocardial injury / IR damage relative to PBS (necrotic volume / volume at risk)” value was determined as 51%. Further, in data set [6], the “paracardial inflammation relative to PBS” value is given as “reduced paracardial inflammation relative to PBS”.
